What was measured:
Format in all cases: cell-based, rat
[1] = tested on: slowly-inactivating A-type K^+ currents; test: Voltage-clamp outward K^+ currents at HP −90 mV in unidentified DRG neurons; conditions: for K^+ current at HP: −90 mV, relative value (before compound = 1): unidentified DRG neurons
Description: (§1) Experiments were performed on adult female Sprague Dawley rats. First and second series of the experiments were performed, respectively, in unidentified DRG neurons and a specific population of DRG neurons innervating the urinary bladder. The population of DRG neurons that innervate the urinary bladder were labeled by retrograde axonal transport of the fluorescent dye, Fast Blue (4% w/v) (Polyloy, Gross Umstadt, Germany), injected into the wall of the bladder in halothane-anesthetized animals 7 days before the dissociation. The dye was injected with a 28 gauge needle at three to six sites on the dorsal surface of the organ (5-6 μL per site, total volume of 20-30 μL). Each injection site was washed with saline to minimize contamination of adjacent organs with the dye.
(§2) Freshly dissociated neurons from DRG were prepared from halothane-anesthetized animals. L6 and S1 DRG were dissected from animals and then dissociated in a shaking bath for 25 minutes at 35° C. with 5 mL DMEM (Sigma) containing 0.3 mg/mL trypsin (Type 3, Sigma), 1 mg/mL collagenase (Type 1, Sigma), and 0.1 mg/mL deoxyribonuclease (Type 4, Sigma). Trypsin inhibitor (Type 2a, Sigma) was then added thereto to neutralize the activity of trypsin. Individual DRG cell bodies were isolated by trituration and then plated on a poly-L-lysine-coated 35 mm Petri dishes.
(§3) Dye-labeled primary afferent neurons that innervate the urinary bladder were identified using an inverted phase-contrast microscope (Nikon, Tokyo, Japan) with fluorescent attachments (UV-1A filter; excitation wavelength, 365 nm). Gigaohm-seal whole-cell recordings were performed at room temperature (20-22° C.) on each labeled neuron in a culture dish that usually contained three to seven labeled cells among a few hundred unlabeled neurons. The internal solution contained (in mmol/L): KCl 140, CaCl2 1, MgCl2 2, EGTA 11, HEPES 10, Mg-ATP 2, and Tris-GTP 0.4 adjusted to pH 7.4 with KOH. Patch electrodes had resistances of 1-4 MΩ when filled with the internal solution. Neurons were superfused at a flow rate of 1.5 mL/minutes with an external solution containing (in mmol/L): NaCl 150, KCl 5, CaCl2 2.5, MgCl2 1, HEPES 10, and D-glucose 10, adjusted to pH 7.4 with NaOH. All recordings were made with an Axopatch-1D patch-clamp amplifier (Axon Instruments, Foster City, Calif.), and data were acquired and analyzed by PCLAMP software (Axon Instruments).
In voltage-clamp recordings, outward K^+ currents and inward Na^+ currents were measured. For the isolation of K^+ currents, the external solution was changed to one containing (in mmol/L): choline-Cl 150, KOH 5, CaCl2 0.03, HEPES 10, Mg(OH)2 3, and D-glucose 10, adjusted to pH 7.4 with HCl.
In first series of experiments using unidentified DRG neurons, outward K^+ currents were evoked by voltage steps to +60 mV, 800 ms long from a holding potentials of −90 mV, this was followed by a 1-second conditioning prepulse to −20 mV followed by a second pulse to +60 mV, identical to the first in the sequence. In the second series of experiments using Fast Blue-labeled bladder afferent neurons, slowly-inactivating A-type K^+ currents were isolated by. subtraction of outward K^+ currents activated from a holding potential of −40 mV (on the condition of inactivation of the majority of slowly-inactivating A-type K^+ currents) from those activated from a holding potential of −120 mV (on the condition of full activation of slowly-inactivating A-type K^+ currents). A compound was added cumulatively, starting with a lower concentration. Currents were measured at the maximum (peak) and normalized to control (before addition of the compound).

Na^+ currents = test: Voltage-clamp inward Na^+ currents in DRG cells
Description: as §1, §2, §3
Inward Na^+ currents were evoked by voltage steps to +60 mV, 800 ms long from a holding potential of −90 mV. Currents were measured at the maximum (peak) and normalized to control (before addition of the compound).

[2] = tested on: delayed rectifier K^+ currents; test: Delayed rectifier K^+ currents in Fast Blue-labeled capsaicin-sensitive bladder afferent neurons; conditions: 1.0 × 10^−6 mol/L
Description: as §1
Freshly dissociated neurons from DRG were prepared from halothane-anesthetized animals. […]
Dye-labeled primary afferent neurons that innervate the urinary bladder were identified using an inverted phase-contrast microscope (Nikon, Tokyo, Japan) with fluorescent attachments (UV-1A filter; excitation wavelength, 365 nm). […] All recordings were made with an Axopatch-1D patch-clamp amplifier (Axon Instruments, Foster City, Calif.), and data were acquired and analyzed by PCLAMP software (Axon Instruments).
In voltage-clamp recordings, outward K^+ currents and inward Na^+ currents were measured. […]

In the case of `C[C@](O)(C(=O)Nc1cccc2c1C(=O)c1sccc1CS2(=O)=O)C(F)(F)F` [Compound 1, (S)-(+)-N-(5,5-dioxido-10-oxo-4,10-dihydrothieno[3,2-c][l]benzothiepin-9-yl)-3,3,3-trifluoro-2-hydroxy-2-methylpropanamide], the “K^+ current at HP: −90 mV, relative value” ([1]; 1.0 × 10^−5 mol/L, in the presence of 5 μmol/L verapamil) is reported as 0.99 ± 0.02, the “K^+ current at HP: −90 mV, relative value” ([1]; 1.0 × 10^−5 mol/L, in the presence of 20 mmol/L tetraethylammonium) is reported as 1.19 ± 0.01 and the “K^+ current at HP: −90 mV, relative value (before compound = 1)” value ([1]; 1.0 × 10^−5 mol/L) is reported as 0.96 ± 0.05. The “K^+ current at HP: −90 mV, relative value” ([1]; 1.0 × 10^−6 mol/L, in the presence of 5 μmol/L verapamil) was 1.11 ± 0.03, the “K^+ current at HP: −90 mV, relative value” ([1]; 1.0 × 10^−6 mol/L, in the presence of 20 mmol/L tetraethylammonium) was 1.19 ± 0.05 and the “K^+ current at HP: −90 mV, relative value (before compound = 1)” value ([1]; 1.0 × 10^−6 mol/L) was 1.06 ± 0.02. The “K^+ current at HP: −90 mV, relative value” ([1]; 1.0 × 10^−7 mol/L, in the presence of 5 μmol/L verapamil) was 1.13 ± 0.02, the “K^+ current at HP: −90 mV, relative value” ([1]; 1.0 × 10^−7 mol/L, in the presence of 20 mmol/L tetraethylammonium) was 1.10 ± 0.01 and the “K^+ current at HP: −90 mV, relative value (before compound = 1)” value ([1]; 1.0 × 10^−7 mol/L) was 1.12 ± 0.03. For the same compound, the “K^+ current at HP: −90 mV, relative value (before compound = 1)” value ([1]; 1.0 × 10^−8 mol/L) was 0.99 ± 0.08, the “K^+ current at HP: −90 mV, relative value (before compound = 1)” value ([1]; 2.5 × 10^−8 mol/L) was 1.07 ± 0.03 and the “K^+ current at HP: −90 mV, relative value” ([1]; 5.0 × 10^−4 mol/L, in the presence of 5 μmol/L verapamil) was 0.61 ± 0.05. For the same compound, the “K^+ current at HP: −90 mV, relative value” ([1]; 5.0 × 10^−4 mol/L, in the presence of 20 mmol/L tetraethylammonium) was 0.29 ± 0.02, the “K^+ current at HP: −90 mV, relative value” ([1]; 5.0 × 10^−4 mol/L, in the presence of 60 mmol/L tetraethylammonium) was 0.56 ± 0.05 and the “K^+ current at HP: −90 mV, relative value” ([1]; 5.0 × 10^−5 mol/L, in the presence of 5 μmol/L verapamil) was 0.94 ± 0.02. For the same compound, the “K^+ current at HP: −90 mV, relative value” ([1]; 5.0 × 10^−5 mol/L, in the presence of 20 mmol/L tetraethylammonium) was 0.91 ± 0.04, the “K^+ current at HP: −90 mV, relative value” ([1]; 5.0 × 10^−5 mol/L, in the presence of 60 mmol/L tetraethylammonium) was 1.15 ± 0.08 and the “K^+ current at HP: −90 mV, relative value (before compound = 1)” value ([1]; 5.0 × 10^−5 mol/L) was 0.83 ± 0.09. The “K^+ current at HP: −90 mV, relative value” ([1]; 5.0 × 10^−6 mol/L, in the presence of 5 μmol/L verapamil) was 1.02 ± 0.03, the “K^+ current at HP: −90 mV, relative value” ([1]; 5.0 × 10^−6 mol/L, in the presence of 20 mmol/L tetraethylammonium) was 1.16 ± 0.03 and the “K^+ current at HP: −90 mV, relative value” ([1]; 5.0 × 10^−6 mol/L, in the presence of 60 mmol/L tetraethylammonium) was 1.14 ± 0.05. For the same compound, the “K^+ current at HP: −90 mV, relative value” ([1]; 5.0 × 10^−7 mol/L, in the presence of 5 μmol/L verapamil) was 1.17 ± 0.03, the “K^+ current at HP: −90 mV, relative value” ([1]; 5.0 × 10^−7 mol/L, in the presence of 20 mmol/L tetraethylammonium) was 1.15 ± 0.04 and the “K^+ current at HP: −90 mV, relative value” ([1]; 5.0 × 10^−7 mol/L, in the presence of 60 mmol/L tetraethylammonium) was 1.11 ± 0.03. For the same compound, the “K^+ current at HP: −90 mV, relative value (before compound = 1)” value ([1]; 5.0 × 10^−7 mol/L) was 1.15 ± 0.03, the “K^+ current at HP: −90 mV, relative value” ([1]; 5.0 × 10^−8 mol/L, in the presence of 5 μmol/L verapamil) was 1.03 ± 0.02 and the “K^+ current at HP: −90 mV, relative value” ([1]; 5.0 × 10^−8 mol/L, in the presence of 20 mmol/L tetraethylammonium) was 1.08 ± 0.02. The “K^+ current at HP: −90 mV, relative value” ([1]; 5.0 × 10^−8 mol/L, in the presence of 60 mmol/L tetraethylammonium) was 1.08 ± 0.02, the “K^+ current at HP: −90 mV, relative value (before compound = 1)” value ([1]; 5.0 × 10^−8 mol/L) was 1.07 ± 0.02 and the “K^+ current at HP: −90 mV, relative value” ([1]; 5.0 × 10^−9 mol/L, in the presence of 20 mmol/L tetraethylammonium) was 1.02 ± 0.02. The “K^+ current at HP: −90 mV, relative value (before compound = 1)” value ([1]; 5.0 × 10^−9 mol/L) was 1.01 ± 0.03, the “peak compound concentration for increase of slowly-inactivating A-type K^+ currents” value ([1]; unidentified DRG cells, HP −90 mV) was 1e-07 to 5e-07 mol/L and the “influence upon Na^+ currents” value (Na^+ currents) was “does not exert influence”. For the same compound, the “Na^+ ion currents, normalized to control” value (Na^+ currents; 1.0 × 10^−6 mol/L) was 0.99 ± 0.02, the “Na^+ ion currents, normalized to control” value (Na^+ currents; 5.0 × 10^−4 mol/L) was 1.00 ± 0.01 and the “Na^+ ion currents, normalized to control” value (Na^+ currents; 5.0 × 10^−5 mol/L) was 1.00 ± 0.01. For the same compound, the “Na^+ ion currents, normalized to control” value (Na^+ currents; 5.0 × 10^−6 mol/L) was 1.00 ± 0.00, the “Na^+ ion currents, normalized to control” value (Na^+ currents; 5.0 × 10^−7 mol/L) was 0.99 ± 0.01 and the “Na^+ ion currents, normalized to control” value (Na^+ currents; 5.0 × 10^−8 mol/L) was 0.99 ± 0.01. The “Delayed rectifier HP: −40 mV, normalized to control” value [2] was 1.10 ± 0.01.
